Legend:
Water solubility = format: physicochemical; details: result in words; method not given
MCF-7 cells = assay: MTS cell viability assay, 24h treatment; format: cell-based; details: result in words

Row | water solubility (Water solubility) | Structure (SMILES) | cytotoxicity (in words) (MCF-7 cells)
1 | good water solubility | C[C@@H](c1ccccc1)N(CC(N)=O)C(=O)CN(C(=O)CN(CCCCN)C(=O)CN(C(=O)CN(C(=O)CN(CCCCN)C(=O)CN(C(=O)CN(C(=O)CN(CCCCN)C(=O)CN(C(=O)CN(C(=O)CN(CCCCN)C(=O)c1ccc2c(c1)C(=O)OC21c2ccc(O)cc2Oc2cc(O)ccc21)[C@@H](C)c1ccccc1)[C@@H](C)c1ccccc1)[C@@H](C)c1ccccc1)[C@@H](C)c1ccccc1)[C@@H](C)c1ccccc1)[C@@H](C)c1ccccc1)[C@@H](C)c1ccccc1 [Construct 4] | –
2 | – | N=C(N)NCCC[C@H](NC(=O)[C@H](CCCNC(=N)N)NC(=O)[C@H](CCCNC(=N)N)NC(=O)[C@H](CCCNC(=N)N)NC(=O)[C@H](CCCNC(=N)N)NC(=O)[C@H](CCCNC(=N)N)NC(=O)[C@H](CCCNC(=N)N)NC(=O)[C@H](CCCNC(=N)N)NC(=O)c1ccc2c(c1)C(=O)OC21c2ccc(O)cc2Oc2cc(O)ccc21)C(N)=O [Construct 1] | minor cytotoxicity
